Measurements as given in the kinase profiling compilation of Christmann-Franck et al. (2016).

Legend:
Test in all cases: radiometric filter-binding kinase assay, Kinase HotSpot
Conditions in all cases: compound 0.5 µM; ATP 10 µM
[1] = target: EPHB3 (human) (UniProt P54753)
[2] = target: EPHA5 (human) (UniProt P54756)
[3] = target: CAMK1G (human) (UniProt Q96NX5)
[4] = target: EPHA8 (human) (UniProt P29322)
[5] = target: CAMK2B (human) (UniProt Q13554)
[6] = target: CSNK1G3 (human) (UniProt Q9Y6M4)
[7] = target: MAPK13 (human) (UniProt O15264)
Sequence of MAPK13 (human) (O15264 whole entry, looked up): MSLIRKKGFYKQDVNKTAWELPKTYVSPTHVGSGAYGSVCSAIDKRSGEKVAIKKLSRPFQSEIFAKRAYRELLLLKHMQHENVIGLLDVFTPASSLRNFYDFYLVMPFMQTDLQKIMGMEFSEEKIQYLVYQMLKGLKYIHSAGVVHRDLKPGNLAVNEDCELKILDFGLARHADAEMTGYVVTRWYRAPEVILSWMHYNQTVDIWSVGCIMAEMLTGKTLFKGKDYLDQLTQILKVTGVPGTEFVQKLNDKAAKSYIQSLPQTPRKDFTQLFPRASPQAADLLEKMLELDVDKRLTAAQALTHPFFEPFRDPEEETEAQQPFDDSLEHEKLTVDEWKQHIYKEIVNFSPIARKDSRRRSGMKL

[8] = target: AKT1 (human) (UniProt P31749)
Sequence of AKT1 (human) (P31749 whole entry, looked up): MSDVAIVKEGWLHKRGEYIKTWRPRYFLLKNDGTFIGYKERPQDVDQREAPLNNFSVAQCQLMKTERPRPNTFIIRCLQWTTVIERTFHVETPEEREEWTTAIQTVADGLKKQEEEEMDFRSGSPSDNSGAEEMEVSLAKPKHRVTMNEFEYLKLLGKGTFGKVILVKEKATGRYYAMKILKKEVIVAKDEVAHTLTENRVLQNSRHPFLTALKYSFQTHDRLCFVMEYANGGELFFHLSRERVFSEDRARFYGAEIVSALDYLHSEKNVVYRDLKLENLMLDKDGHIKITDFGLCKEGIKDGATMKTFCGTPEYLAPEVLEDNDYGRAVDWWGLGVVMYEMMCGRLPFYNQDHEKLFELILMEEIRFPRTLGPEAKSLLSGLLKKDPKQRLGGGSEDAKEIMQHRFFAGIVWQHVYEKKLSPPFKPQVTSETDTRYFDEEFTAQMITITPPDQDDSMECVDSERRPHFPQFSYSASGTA

[9] = target: CLK2 (human) (UniProt P49760)
Sequence of CLK2 (human) (P49760 whole entry, looked up): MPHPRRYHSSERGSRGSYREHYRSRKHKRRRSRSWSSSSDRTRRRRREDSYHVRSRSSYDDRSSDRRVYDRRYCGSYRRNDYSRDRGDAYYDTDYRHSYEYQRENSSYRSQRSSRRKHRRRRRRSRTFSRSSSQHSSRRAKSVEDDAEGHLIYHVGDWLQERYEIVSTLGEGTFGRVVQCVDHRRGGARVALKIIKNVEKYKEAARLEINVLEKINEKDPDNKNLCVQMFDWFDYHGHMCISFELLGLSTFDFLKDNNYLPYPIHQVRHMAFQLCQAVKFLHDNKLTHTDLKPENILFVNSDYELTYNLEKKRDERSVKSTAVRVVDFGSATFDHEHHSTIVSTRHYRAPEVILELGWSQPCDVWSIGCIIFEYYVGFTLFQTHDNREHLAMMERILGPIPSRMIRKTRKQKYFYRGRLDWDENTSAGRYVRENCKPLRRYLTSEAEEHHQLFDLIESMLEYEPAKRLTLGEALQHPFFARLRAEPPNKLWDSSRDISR

[10] = target: GRK4 (human) (UniProt P32298)
[11] = target: MARK1 (human) (UniProt Q9P0L2)
[12] = target: ULK2 (human) (UniProt Q8IYT8)
[13] = target: CDK1 CCNB1 (human) (UniProt P06493+P14635)
[14] = target: MELK (human) (UniProt Q14680)
[15] = target: MAP4K4 (human) (UniProt O95819)
[16] = target: ROCK2 (human) (UniProt O75116)
[17] = target: FGFR1 (human) (UniProt P11362)
[18] = target: FGFR4 (human) (UniProt P22455)
[19] = target: TAOK3 (human) (UniProt Q9H2K8)
[20] = target: MAP4K5 (human) (UniProt Q9Y4K4)
[21] = target: MAPK3 (human) (UniProt P27361)
Sequence of MAPK3 (human) (P27361 whole entry, looked up): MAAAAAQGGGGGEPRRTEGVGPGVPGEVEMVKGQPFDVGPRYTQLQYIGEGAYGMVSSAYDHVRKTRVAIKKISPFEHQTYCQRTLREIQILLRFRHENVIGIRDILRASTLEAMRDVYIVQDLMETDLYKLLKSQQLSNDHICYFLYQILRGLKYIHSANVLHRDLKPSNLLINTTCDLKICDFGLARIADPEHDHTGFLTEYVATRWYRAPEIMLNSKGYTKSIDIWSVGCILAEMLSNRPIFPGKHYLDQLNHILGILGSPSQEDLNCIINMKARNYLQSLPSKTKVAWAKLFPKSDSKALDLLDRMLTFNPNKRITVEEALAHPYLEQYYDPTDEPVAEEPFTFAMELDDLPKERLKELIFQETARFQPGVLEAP

[22] = target: CDK4 CCND1 (human) (UniProt P24385+P11802)
[23] = target: CDK3 CCNE1 (human) (UniProt Q00526+P24864)
Sequence of CDK3 CCNE1 (human) (P24864 whole entry, looked up): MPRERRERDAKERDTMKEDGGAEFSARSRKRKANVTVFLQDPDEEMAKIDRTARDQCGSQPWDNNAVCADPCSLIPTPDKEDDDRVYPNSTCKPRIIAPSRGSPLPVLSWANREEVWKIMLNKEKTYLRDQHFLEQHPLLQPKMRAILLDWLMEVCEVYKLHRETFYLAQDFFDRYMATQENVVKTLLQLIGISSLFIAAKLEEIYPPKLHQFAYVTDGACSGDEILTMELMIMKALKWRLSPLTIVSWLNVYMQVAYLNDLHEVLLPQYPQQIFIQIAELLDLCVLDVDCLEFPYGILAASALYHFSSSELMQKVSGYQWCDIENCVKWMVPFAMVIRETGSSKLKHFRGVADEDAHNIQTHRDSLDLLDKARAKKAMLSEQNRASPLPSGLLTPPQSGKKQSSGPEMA
Sequence of CDK3 CCNE1 (human) (Q00526 whole entry, looked up): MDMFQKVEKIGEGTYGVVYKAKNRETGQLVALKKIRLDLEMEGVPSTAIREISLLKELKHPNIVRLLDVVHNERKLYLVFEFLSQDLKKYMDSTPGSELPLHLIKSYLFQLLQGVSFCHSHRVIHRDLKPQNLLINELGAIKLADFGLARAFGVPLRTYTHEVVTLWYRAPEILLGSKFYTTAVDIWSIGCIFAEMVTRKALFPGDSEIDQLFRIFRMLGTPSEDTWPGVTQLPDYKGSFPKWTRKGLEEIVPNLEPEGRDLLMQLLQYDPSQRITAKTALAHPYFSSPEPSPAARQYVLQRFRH

[24] = target: IKBKE (human) (UniProt Q14164)
[25] = target: CSNK1G1 (human) (UniProt Q9HCP0)
Sequence of CSNK1G1 (human) (Q9HCP0 whole entry, looked up): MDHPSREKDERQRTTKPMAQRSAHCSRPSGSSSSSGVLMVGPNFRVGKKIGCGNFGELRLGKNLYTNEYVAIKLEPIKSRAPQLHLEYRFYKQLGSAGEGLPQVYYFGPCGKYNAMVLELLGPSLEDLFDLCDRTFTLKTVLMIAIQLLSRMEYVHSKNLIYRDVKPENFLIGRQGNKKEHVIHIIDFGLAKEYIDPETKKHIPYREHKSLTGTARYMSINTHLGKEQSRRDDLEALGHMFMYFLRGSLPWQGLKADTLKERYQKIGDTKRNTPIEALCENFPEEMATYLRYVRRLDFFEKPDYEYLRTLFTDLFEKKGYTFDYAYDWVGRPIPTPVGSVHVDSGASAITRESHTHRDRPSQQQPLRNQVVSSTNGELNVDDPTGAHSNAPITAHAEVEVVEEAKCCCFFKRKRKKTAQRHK

[26] = target: CHEK1 (human) (UniProt O14757)
[27] = target: SLK (human) (UniProt Q9H2G2)
[28] = target: IKBKB (human) (UniProt O14920)
[29] = target: FES (human) (UniProt P07332)
[30] = target: PDPK1 (human) (UniProt O15530)
[31] = target: EGFR (human) (UniProt P00533)
[32] = target: CAMK2D (human) (UniProt Q13557)
[33] = target: SRMS (human) (UniProt Q9H3Y6)
[34] = target: PHKG1 (human) (UniProt Q16816)
[35] = target: TYRO3 (human) (UniProt Q06418)
[36] = target: MAP3K5 (human) (UniProt Q99683)
[37] = target: MAP2K1 (human) (UniProt Q02750)
[38] = target: STK3 (human) (UniProt Q13188)
[39] = target: NTRK3 (human) (UniProt Q16288)
[40] = target: CAMK1D (human) (UniProt Q8IU85)
[41] = target: HIPK3 (human) (UniProt Q9H422)
[42] = target: CSNK2A2 (human) (UniProt P19784)

Sequence of CAMK1G (human) (Q96NX5 whole entry, looked up): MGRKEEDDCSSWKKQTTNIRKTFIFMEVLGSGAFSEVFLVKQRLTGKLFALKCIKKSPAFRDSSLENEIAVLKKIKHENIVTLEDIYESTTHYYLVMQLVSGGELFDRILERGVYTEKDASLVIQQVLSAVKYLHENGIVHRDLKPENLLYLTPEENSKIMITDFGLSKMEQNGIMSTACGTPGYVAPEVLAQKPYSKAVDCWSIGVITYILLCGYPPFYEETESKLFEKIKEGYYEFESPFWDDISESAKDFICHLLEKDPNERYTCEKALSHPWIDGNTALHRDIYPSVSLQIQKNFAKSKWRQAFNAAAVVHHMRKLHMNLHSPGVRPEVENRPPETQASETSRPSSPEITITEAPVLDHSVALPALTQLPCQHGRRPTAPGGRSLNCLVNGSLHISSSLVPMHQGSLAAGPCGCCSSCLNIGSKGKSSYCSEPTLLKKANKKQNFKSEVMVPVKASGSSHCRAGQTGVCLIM
Sequence of EPHB3 (human) (P54753 whole entry, looked up): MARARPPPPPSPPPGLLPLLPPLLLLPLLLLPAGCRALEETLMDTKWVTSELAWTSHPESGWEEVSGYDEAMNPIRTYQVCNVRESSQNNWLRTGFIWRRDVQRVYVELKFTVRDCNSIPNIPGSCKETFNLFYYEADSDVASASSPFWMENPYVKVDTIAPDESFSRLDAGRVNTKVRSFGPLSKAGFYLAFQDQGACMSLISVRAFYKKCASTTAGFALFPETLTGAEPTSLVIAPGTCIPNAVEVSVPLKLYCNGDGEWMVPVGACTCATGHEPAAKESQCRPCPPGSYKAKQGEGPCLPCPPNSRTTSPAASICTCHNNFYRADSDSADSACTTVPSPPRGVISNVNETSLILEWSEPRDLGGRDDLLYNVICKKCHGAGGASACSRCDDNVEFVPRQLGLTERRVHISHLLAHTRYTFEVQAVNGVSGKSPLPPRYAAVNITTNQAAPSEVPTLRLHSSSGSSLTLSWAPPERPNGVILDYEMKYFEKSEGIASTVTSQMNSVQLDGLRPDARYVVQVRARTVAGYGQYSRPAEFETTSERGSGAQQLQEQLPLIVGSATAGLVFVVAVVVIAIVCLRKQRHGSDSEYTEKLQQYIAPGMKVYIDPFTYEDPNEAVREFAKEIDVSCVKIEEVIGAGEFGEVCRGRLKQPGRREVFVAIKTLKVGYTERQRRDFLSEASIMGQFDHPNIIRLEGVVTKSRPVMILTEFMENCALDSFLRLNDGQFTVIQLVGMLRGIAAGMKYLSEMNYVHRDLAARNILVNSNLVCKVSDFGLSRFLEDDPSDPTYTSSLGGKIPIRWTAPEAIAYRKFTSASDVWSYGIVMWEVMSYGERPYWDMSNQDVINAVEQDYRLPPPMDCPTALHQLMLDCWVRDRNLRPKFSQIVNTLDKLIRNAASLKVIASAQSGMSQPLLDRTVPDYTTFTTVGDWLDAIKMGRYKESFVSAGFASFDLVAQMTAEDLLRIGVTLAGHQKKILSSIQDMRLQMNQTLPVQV
Sequence of CAMK2B (human) (Q13554 whole entry, looked up): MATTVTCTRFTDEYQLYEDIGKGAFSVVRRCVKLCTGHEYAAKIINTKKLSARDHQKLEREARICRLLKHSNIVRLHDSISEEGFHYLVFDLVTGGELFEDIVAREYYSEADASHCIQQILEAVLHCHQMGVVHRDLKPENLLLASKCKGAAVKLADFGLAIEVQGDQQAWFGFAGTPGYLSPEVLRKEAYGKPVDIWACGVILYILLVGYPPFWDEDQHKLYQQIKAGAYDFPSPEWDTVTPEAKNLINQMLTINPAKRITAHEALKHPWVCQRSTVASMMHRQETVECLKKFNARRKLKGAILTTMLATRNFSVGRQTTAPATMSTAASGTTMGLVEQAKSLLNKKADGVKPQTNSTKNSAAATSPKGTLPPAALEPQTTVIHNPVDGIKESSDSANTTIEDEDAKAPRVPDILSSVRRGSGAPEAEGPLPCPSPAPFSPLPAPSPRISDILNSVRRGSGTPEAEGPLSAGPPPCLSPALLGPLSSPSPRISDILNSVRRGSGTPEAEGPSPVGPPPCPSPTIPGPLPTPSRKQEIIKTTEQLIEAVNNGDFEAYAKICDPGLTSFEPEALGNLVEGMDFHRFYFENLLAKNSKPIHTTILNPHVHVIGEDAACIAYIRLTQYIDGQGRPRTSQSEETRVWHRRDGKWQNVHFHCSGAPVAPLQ

With `CC(=O)O/N=C1\C(=C2\C(=O)Nc3cc(Br)ccc32)Nc2ccccc21` the residual activity [1] was 94.2%, the residual activity [2] was 102% and the residual activity [3] was 101%. For the same compound, the residual activity [4] was 96.3%, the residual activity [5] was 91.5% and the residual activity [6] was 101%. For the same compound, the residual activity [7] was 91.5%, the residual activity [8] was 99.6% and the residual activity [9] was 96.8%. For the same compound, the residual activity [10] was 97.6%, the residual activity [11] was 76% and the residual activity [12] was 92.2%. For the same compound, the residual activity [13] was 79.3%, the residual activity [14] was 93.9% and the residual activity [15] was 30.2%. It also gave a residual activity [16] of 91.7%, a residual activity [17] of 68.8% and a residual activity [18] of 82.6%. For the same compound, the residual activity [19] was 72.4%, the residual activity [20] was 24.1% and the residual activity [21] was 93.7%. It also gave a residual activity [22] of 73.3%, a residual activity [23] of 36.3% and a residual activity [24] of 81.4%. For the same compound, the residual activity [25] was 93.9%, the residual activity [26] was 100% and the residual activity [27] was 80.2%. For the same compound, the residual activity [28] was 92.4%, the residual activity [29] was 115% and the residual activity [30] was 88.2%. For the same compound, the residual activity [31] was 91.1%, the residual activity [32] was 53.8% and the residual activity [33] was 98%. For the same compound, the residual activity [34] was 67.7%, the residual activity [35] was 69.8% and the residual activity [36] was 95.8%. The residual activity [37] was 84.9%, the residual activity [38] was 39.5% and the residual activity [39] was 15.1%. For the same compound, the residual activity [40] was 79.1% and the residual activity [41] was 76.7%.

Work on `O=C1NC(=O)C(c2cn(CCCO)c3ncccc23)=C1c1cnccn1` yielded a residual activity [1] of 86.6%, a residual activity [2] of 99.4% and a residual activity [3] of 101%. It also gave a residual activity [4] of 86.9%, a residual activity [5] of 97.6% and a residual activity [6] of 107%. For the same compound, the residual activity [7] was 96.5%, the residual activity [8] was 98.6% and the residual activity [9] was 98.9%. It also gave a residual activity [10] of 90.1%, a residual activity [11] of 95% and a residual activity [12] of 96.7%. The residual activity [13] was 81.1%, the residual activity [14] was 101% and the residual activity [15] was 36.4%. The residual activity [16] was 96%, the residual activity [17] was 81.2% and the residual activity [18] was 91.5%. The residual activity [19] was 88.2%, the residual activity [20] was 37.5% and the residual activity [21] was 94.5%. The residual activity [22] was 89.5%, the residual activity [23] was 89.4% and the residual activity [24] was 90%. The residual activity [25] was 101%, the residual activity [26] was 141% and the residual activity [27] was 106%. It also gave a residual activity [28] of 87.3%, a residual activity [29] of 121% and a residual activity [30] of 92.2%. The residual activity [31] was 95.9%, the residual activity [32] was 101% and the residual activity [33] was 95.9%. For the same compound, the residual activity [34] was 87.2%, the residual activity [35] was 93.7% and the residual activity [36] was 88.9%. The residual activity [37] was 106%, the residual activity [38] was 74.4% and the residual activity [39] was 79.7%. For the same compound, the residual activity [40] was 95.1% and the residual activity [41] was 89.2%.

Compound `CN([C@@H](Cc1ccc(OS(=O)(=O)c2cccc3cnccc23)cc1)C(=O)N1CCN(c2ccccc2)CC1)S(=O)(=O)c1cccc2cnccc12` has a residual activity [1] of 97%, a residual activity [2] of 102% and a residual activity [3] of 93.6%. It also gave a residual activity [4] of 99.6%, a residual activity [5] of 97.8% and a residual activity [6] of 104%. For the same compound, the residual activity [7] was 102%, the residual activity [8] was 102% and the residual activity [9] was 93%. The residual activity [10] was 96.5%, the residual activity [11] was 96.7% and the residual activity [12] was 106%. The residual activity [13] was 108%, the residual activity [15] was 94.8% and the residual activity [16] was 105%. The residual activity [17] was 103%, the residual activity [18] was 110% and the residual activity [19] was 89.9%. For the same compound, the residual activity [20] was 96.3%, the residual activity [21] was 90.6% and the residual activity [22] was 95.3%. It also gave a residual activity [23] of 101%, a residual activity [42] of 121% and a residual activity [24] of 92.6%. The residual activity [25] was 102%, the residual activity [26] was 99.5% and the residual activity [27] was 101%. For the same compound, the residual activity [28] was 96.7%, the residual activity [29] was 97.7% and the residual activity [30] was 96.4%. It also gave a residual activity [31] of 89.4%, a residual activity [32] of 92.8% and a residual activity [33] of 103%. The residual activity [34] was 93.4%, the residual activity [35] was 101% and the residual activity [36] was 99.2%. The residual activity [37] was 75.3%, the residual activity [38] was 98.8% and the residual activity [39] was 97.5%. It also gave a residual activity [40] of 101% and a residual activity [41] of 110%.

For `Nc1nccc(-c2c(-c3ccc(F)cc3)ncn2C2CCNCC2)n1`, the residual activity [1] was 101%, the residual activity [2] was 97.8% and the residual activity [3] was 99.3%. It also gave a residual activity [4] of 101%, a residual activity [5] of 97.7% and a residual activity [6] of 83.9%. The residual activity [8] was 99.9%, the residual activity [9] was 99.7% and the residual activity [10] was 96.9%. The residual activity [11] was 97.9%, the residual activity [12] was 113% and the residual activity [13] was 96.8%. For the same compound, the residual activity [14] was 100%, the residual activity [15] was 76.3% and the residual activity [16] was 103%. For the same compound, the residual activity [17] was 91.2%, the residual activity [18] was 85.7% and the residual activity [19] was 95.3%. The residual activity [20] was 68.1%, the residual activity [21] was 100% and the residual activity [22] was 99.9%. It also gave a residual activity [23] of 95.5%, a residual activity [42] of 92.2% and a residual activity [24] of 99.5%. For the same compound, the residual activity [25] was 83.1%, the residual activity [26] was 99.8% and the residual activity [27] was 99.9%. The residual activity [28] was 104%, the residual activity [29] was 103% and the residual activity [30] was 103%. The residual activity [31] was 94.4%, the residual activity [32] was 100% and the residual activity [33] was 97.5%. The residual activity [34] was 98.3%, the residual activity [35] was 96.9% and the residual activity [36] was 102%. For the same compound, the residual activity [37] was 98.2%, the residual activity [38] was 103% and the residual activity [39] was 97.1%. The residual activity [40] was 103% and the residual activity [41] was 97.6%.
